Assay results as given in patent US20250368962A1, “THREE-DIMENSIONAL HEPATIC TISSUE AND METHOD OF MANUFACTURING THE SAME” (TOPPAN HOLDINGS INC., priority 2023, published 2025).

Key:
[1] = test system: three-dimensional hepatic tissue consisting only of human hepatocytes (PXB cells); assay: ATP assay (CellTiter Glo 3D) viability after exposure to hepatotoxicity-inducing compounds, Test Example 6 Condition 1; assay type: cell-based; settings: Hepatocyte, calculated from cell viability (ATP), exposure 168 hours from day 8 of culture, no bile acids, read-out: IC50 Condition 1 (present tissue)
Protocol: The resulting mixture was centrifuged at room temperature at 400×g for 2 minutes, the supernatant was removed, and the cells were resuspended in an HCM (product number “CC-3198”, manufactured by Lonza) containing 10 U/mL thrombin (product number “R4648”, manufactured by Sigma-Aldrich) and 1 v/v % endothelial cell growth supplement (ECGS) (product number “1052”, manufactured by Sciencell) to a cell density of 1.95×10^4 cells/2 μL to obtain a cell suspension.
2 μL of an HCM containing 5 mg/mL fibrinogen and 1 v/v % ECGS was added to a 48-well microplate (product number “3830-048”, manufactured by AGC Techno Glass) to form a droplet. The cell suspension was added to the interior of each droplet, and the 48-well microplate was then left to stand in an incubator for 40 minutes to form a fibrin gel in which the human hepatocytes were embedded. 0.5 mL of HCM containing 1 v/v % ECGS was added to each well in which the fibrin gel had been formed, and the cells were cultured under the conditions of 37° C. and 5% CO2. After the start of the culture, the medium was changed every two days.

[2] = test system: spheroids consisting only of human hepatocytes (PXB cells); assay: ATP assay (CellTiter Glo 3D) viability after exposure to hepatotoxicity-inducing compounds, Test Example 6 Condition 2; assay type: cell-based; settings: calculated from cell viability (ATP), hepatocyte spheroids, exposure 168 hours, no bile acids, read-out: IC50 Condition 2 (spheroid)

SMILES: CC(=O)Nc1ccc(O)cc1 [Acetaminophen]
- IC50 [1]: 5510 µM
- IC50 [2]: 4670 µM

SMILES: CCc1oc2ccccc2c1C(=O)c1cc(Br)c(O)c(Br)c1 [Benzbromarone]
- IC50 [1]: 249 µM
- IC50 [2]: 256 µM

SMILES: NC(=O)N1c2ccccc2C=Cc2ccccc21 [Carbamazepine]
- IC50 [1]: 843 µM
- IC50 [2]: 978 µM

SMILES: CN(C)CCCN1c2ccccc2Sc2ccc(Cl)cc21 [Chlorpromazine]
- IC50 [1]: 26.6 µM
- IC50 [2]: 25 µM

SMILES: O=C(O)Cc1ccccc1Nc1c(Cl)cccc1Cl [Diclofenac]
- IC50 [1]: 337 µM
- IC50 [2]: 297 µM

SMILES: CC(C)C(=O)Nc1ccc([N+](=O)[O-])c(C(F)(F)F)c1 [Flutamide]
- IC50 [1]: 63.9 µM
- IC50 [2]: 178 µM

SMILES: CC(=O)N1CCN(c2ccc(OCC3COC(Cn4ccnc4)(c4ccc(Cl)cc4Cl)O3)cc2)CC1 (centres unmarked) [Ketoconazole]
- IC50 [1]: 80.7 µM
- IC50 [2]: 79.5 µM

SMILES: CS(=O)(=O)CCNCc1ccc(-c2ccc3ncnc(Nc4ccc(OCc5cccc(F)c5)c(Cl)c4)c3c2)o1 [Lapatinib]
- IC50 [1]: 8.4 µM
- IC50 [2]: 27.3 µM

SMILES: CCc1nn(CCCN2CCN(c3cccc(Cl)c3)CC2)c(=O)n1CCOc1ccccc1 [Nefazodone]
- IC50 [1]: 39.9 µM
- IC50 [2]: 46.5 µM

SMILES: CS(=O)(=O)Nc1ccc([N+](=O)[O-])cc1Oc1ccccc1 [Nimesulide]
- IC50 [1]: 323 µM
- IC50 [2]: 683 µM

SMILES: C1CCC(C(CC2CCCCN2)C2CCCCC2)CC1 (centres unmarked) [Perhexiline]
- IC50 [1]: 3.6 µM
- IC50 [2]: 5.6 µM

SMILES: Cc1ccc(C(=O)c2cc(O)c(O)c([N+](=O)[O-])c2)cc1 [Tolcapone]
- IC50 [1]: 132 µM
- IC50 [2]: 92.4 µM

SMILES: Cc1c(C)c2c(c(C)c1O)CCC(C)(COc1ccc(CC3SC(=O)NC3=O)cc1)O2 (centres unmarked) [Troglitazone]
- IC50 [1]: 92.9 µM
- IC50 [2]: 202 µM
